These results are taken from patent US8420670B2 (Abbott Laboratories, priority 2007, dated 2013).

One experiment addresses T1, Human GlyT1c (Homo sapiens, UniProt P48067).
T1 construct: expressed in transfected cells; host or cells: CHO (hGlyT1c_5_CHO clone)
T1 sequence (P48067 1-706): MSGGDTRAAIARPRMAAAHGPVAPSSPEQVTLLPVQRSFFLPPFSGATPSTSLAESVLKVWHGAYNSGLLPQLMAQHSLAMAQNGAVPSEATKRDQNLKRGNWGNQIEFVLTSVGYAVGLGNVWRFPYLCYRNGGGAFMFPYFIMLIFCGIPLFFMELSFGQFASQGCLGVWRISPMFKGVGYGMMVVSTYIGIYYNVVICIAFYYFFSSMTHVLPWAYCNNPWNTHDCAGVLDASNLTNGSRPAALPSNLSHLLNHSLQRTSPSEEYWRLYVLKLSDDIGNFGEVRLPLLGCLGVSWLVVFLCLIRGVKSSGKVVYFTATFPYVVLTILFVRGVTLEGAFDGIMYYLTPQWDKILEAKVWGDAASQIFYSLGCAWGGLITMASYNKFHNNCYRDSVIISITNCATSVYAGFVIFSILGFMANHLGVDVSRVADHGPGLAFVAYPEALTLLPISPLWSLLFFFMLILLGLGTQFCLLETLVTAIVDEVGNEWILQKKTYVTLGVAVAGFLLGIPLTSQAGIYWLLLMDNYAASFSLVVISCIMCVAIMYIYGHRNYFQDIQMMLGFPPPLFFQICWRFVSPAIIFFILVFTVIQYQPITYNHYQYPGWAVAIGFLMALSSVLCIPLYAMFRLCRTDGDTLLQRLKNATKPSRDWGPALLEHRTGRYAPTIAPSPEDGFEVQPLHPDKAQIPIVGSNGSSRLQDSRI
Briefly: Glycine uptake in recombinant hGlyT1 expressing cells. It counts as cell-based. The settings on record: hGlyT1c_5_CHO cells; [3H]-glycine uptake, 60-120 min. As to the method:
1. Glycine Uptake in Recombinant hGlyT1 Expressing Cells:
Human GlyT1c expressing recombinant hGlyT1c—5_CHO cells were plated at 20,000 cells per well in 96 well Cytostar-T scintillation microplates (Amersham Biosciences) and cultured to sub-confluency for 24 h. For glycine uptake assays the culture medium was aspirated and the cells were washed once with 100 μl HBSS (Gibco BRL, #14025-050) with 5 mM L-Alanine (Merck #1007). 80 μl HBSS buffer were added, followed by 10 μl inhibitor or vehicle (10% DMSO) and 10 μl [^3H]-glycine (TRK71, Amersham Biosciences) to a final concentration of […] for initiation of glycine uptake. The plates were placed in a Wallac Microbeta (PerkinElmer) and continuously counted by solid phase scintillation spectrometry during up to 3 hours. Nonspecific uptake was determined in the presence of 10 μM Org24598. IC50 calculations were made by four-parametric logistic nonlinear regression analysis (GraphPad Prism) using determinations within the range of linear increase of [^3H]-glycine incorporation between 60 and 120 min.

Another experiment addresses T2, human GlyT1c transporter (Homo sapiens, UniProt P48067).
T2 construct: expressed in transfected cells; host or cells: recombinant hGlyT1-expressing cells
T2 sequence (P48067 1-706): T1 sequence (P48067 1-706)
Description: [3H]-(R)-NPTS radioligand binding assay using recombinant hGlyT1 expressing cell membranes. The settings on record: 0.5 nM [3H]-(R)-NPTS, apparent Ki via Cheng-Prusoff, read-out: [3H]-(R)-NPTS bindung Ki. As to the method: 2. [^3H]-(R)-NPTS Radioligand Binding Assays using Recombinant hGlyT1 Expressing Cell Membranes:
Radioligand binding to human GlyT1c transporter-expressing membranes was measured in duplicate in a total volume of 200 μl in 96-well plates. To 100 μl of membrane suspension (yielding a final membrane protein concentration of 50 μg/ml) in assay buffer (120 mM NaCl, 2 mM KCl, 10 mM Hepes, 1 mM MgCl2, 1 mM CaCl2, pH 7.5) […] of [^3H]-(R)NPTS (0.5 nM final) were added in assay buffer. For competition experiments 10 μl of buffer or unlabeled compound solution obtained from dilution series of test compounds in DMSO followed. An intermediate 1:10 dilution in assay buffer yielded a final DMSO concentration of 1%. Non-specific binding was determined in the presence of 10 μM Org24598 (or its racemate Org24461) for [^3H]-(R)-NPTS. After incubation at room temperature for 1 h, the incubation mixture was harvested (Tomtec Mach III U Harvester) through 96-well GF/B filter plates (PerkinElmer), presoaked for 1 h with 40 μl per well of 0.1% polyethylene-imine (PEI). After washing twice with ice-cold 50 mM Tris-HCl pH 7.4 buffer, drying and addition of 35 μl scintillator (BetaplateScint, PerkinElmer) per well followed. The radioactivity was determined by liquid scintillation spectrometry in a MicroBeta (PerkinElmer) plate counter.
Data analysis: For binding of [^3H]-(R)-NPTS to cell membranes, the calculation of Kd and Bmax values from the saturation binding assays and the IC50 values from the displacement binding was performed by iterative non-linear regression analysis adapted from the ‘Ligand’ program (Munson and Rodbard, 1980). Radioligand displacement curves in absence or in presence of increasing concentrations of tested compounds were fitted using a one-site fit and the apparent Ki values were calculated from the IC50 values using the Cheng-Prusoff equation (Cheng and Prusoff 1973).

Each structure is given as a SMILES string. Where a name gives a salt, the structure may show the parent alone.

Take `COc1cccc2c(NC(CN(C)C)c3ccc(Cl)cc3)cc(C)nc12` (racemic) [Example 68, (rac)-1-(4-Chlorophenyl)-N*1*-(8-methoxy-2-methylquinolin-4-yl)-N*2*,N*2*-dimethylethane-1,2-diamine dihydrochloride]: at Human GlyT1c, the half-inhibitory concentration (IC50) was not above 0.1 µM. On human GlyT1c transporter, the Ki is not above 0.01 µM.

Turning to `Cc1cc(NCc2ccc(Cl)c(Cl)c2)c2cccc(S(=O)(=O)N(C)C)c2n1` [Example 1, 4-(3,4-Dichlorobenzylamino)-2-methylquinoline-8-sulfonic dimethylamide], at Human GlyT1c, the IC50 is not above 10 µM. Besides, the Ki at human GlyT1c transporter was not above 1 µM.

On to `Cc1cc(NCc2ccc(Cl)c(Cl)c2)c2cccc(S(N)(=O)=O)c2n1` [Example 2, 4-(3,4-Dichlorobenzylamino)-2-methylquinoline-8-sulfonamide], for which, at Human GlyT1c, the half-maximal inhibitory concentration (IC50) was not above 1000 µM. In addition, the Ki on human GlyT1c transporter is not above 1 µM.

In the case of `Cc1cc(NCc2ccc(Cl)c(Cl)c2)c2cccc(S(=O)(=O)NC(C)C)c2n1` [Example 3, 4-(3,4-Dichlorobenzylamino)-2-methyl-quinoline-8-sulfonic isopropylamide], the half-maximal inhibitory concentration (IC50) on Human GlyT1c is not above 10 µM. The Ki on human GlyT1c transporter was not above 1 µM.

As for `Cc1cc(NCc2ccc(Cl)c(Cl)c2)c2cccc(S(=O)(=O)Nc3ccc(Cl)cc3)c2n1` [Example 4, 4-(3,4-Dichlorobenzylamino)-2-methylquinoline-8-sulfonic (4-chlorophenyl)-amide], the IC50 at Human GlyT1c was not above 100 µM. Moreover, the Ki on human GlyT1c transporter was not above 1 µM.

For the compound `Cc1cc(NCc2ccc(Cl)c(Cl)c2)c2cccc(N)c2n1` [Example 5, N*4*-(3,4-Dichlorobenzyl)-2-methylquinoline-4,8-diamine], the half-maximal inhibitory concentration (IC50) on Human GlyT1c was not above 0.1 µM. Further, the Ki at human GlyT1c transporter is not above 0.1 µM.

On to `Cc1cc(NCc2ccc(Cl)c(Cl)c2)c2cccc(N3CCOCC3)c2n1` [Example 6, (3,4-Dichlorobenzyl)-(2-methyl-8-morpholin-4-yl-quinolin-4-yl)-amine hydrobromide], for which the IC50 at Human GlyT1c is not above 1 µM. For the same compound, the Ki on human GlyT1c transporter was not above 0.1 µM.

Consider `Cc1cc(NCc2ccc(Cl)c(Cl)c2)c2cccc(N3CCCC3)c2n1` [Example 7, (3,4-Dichlorobenzyl)-(2-methyl-8-pyrrolidin-1-yl-quinolin-4-yl)-amine hydrochloride], for which the IC50 on Human GlyT1c is not above 1 µM. The Ki on human GlyT1c transporter is not above 1 µM.

For `Cc1cc(NCc2ccc(Cl)c(Cl)c2)c2cccc(NS(=O)(=O)c3ccccc3)c2n1` [Example 8, N-[4-(3,4-Dichlorobenzylamino)-2-methylquinolin-8-yl]-phenylsulfonamide], the IC50 on Human GlyT1c was not above 10 µM. Further, on human GlyT1c transporter, the Ki is not above 1 µM.

Regarding `CCNc1cccc2c(NCc3ccc(Cl)c(Cl)c3)cc(C)nc12` [Example 9, N*4*-(3,4-Dichlorobenzyl)-N*8*-ethyl-2-methylquinolin-4,8-diamine], the half-maximal inhibitory concentration (IC50) at Human GlyT1c is not above 1 µM. Further, the Ki at human GlyT1c transporter was not above 0.1 µM.

Regarding `Cc1cc(NCc2ccc(Cl)c(Cl)c2)c2cccc(NC(=O)c3ccccc3)c2n1` [Example 10, N-[4-(3,4-Dichlorobenzylamino)-2-methylquinolin-8-yl]-benzamide], the IC50 at Human GlyT1c was not above 100 µM. Besides, on human GlyT1c transporter, the Ki was not above 1 µM.

As for `Cc1cc(NCc2ccc(Cl)c(Cl)c2)c2cccc(N(S(C)(=O)=O)S(C)(=O)=O)c2n1` [Example 11, N-[4-(3,4-Dichlorobenzylamino)-2-methylquinolin-8-yl]-bis-methanesulfonamide], the IC50 at Human GlyT1c is not above 100 µM. Besides, the Ki at human GlyT1c transporter was not above 10 µM.

Consider `Cc1cc(NCc2ccc(Cl)c(Cl)c2)c2cccc(NS(C)(=O)=O)c2n1` [Example 12, N-[4-(3,4-Dichlorobenzylamino)-2-methylquinolin-8-yl]-methanesulfonamide], for which the IC50 on Human GlyT1c is not above 10 µM. Besides, the Ki at human GlyT1c transporter is not above 1 µM.

Consider `CC(=O)Nc1cccc2c(NCc3ccc(Cl)c(Cl)c3)cc(C)nc12` [Example 13, N-[4-(3,4-Dichlorobenzylamino)-2-methylquinolin-8-yl]-acetamide], for which, on Human GlyT1c, the 50% inhibitory concentration (IC50) was not above 1 µM. Also, the Ki on human GlyT1c transporter is not above 1 µM.

Consider `Cc1cc(NCc2ccc(Cl)c(Cl)c2)c2cccc(NC(=O)C(C)C)c2n1` [Example 14, N-[4-(3,4-Dichlorobenzylamino)-2-methylquinolin-8-yl]-isobutyramide], for which, on Human GlyT1c, the IC50 was not above 10 µM. For the same compound, the Ki at human GlyT1c transporter was not above 10 µM.

With `CNc1cccc2c(NCc3ccc(Cl)c(Cl)c3)cc(C)nc12` [Example 15, N*4*-(3,4-Dichlorobenzyl)-N*8*-methyl-2-methylquinolin-4,8-diamine], on Human GlyT1c, the 50% inhibitory concentration (IC50) is not above 1 µM. Moreover, the Ki on human GlyT1c transporter is not above 0.1 µM.

For the compound `Cc1cc(NCc2ccc(Cl)c(Cl)c2)c2cccc(N(C)C)c2n1` [Example 16, N*4*-(3,4-Dichlorobenzyl)-N*8*-dimethyl-2-methylquinolin-4,8-diamine hydrochloride], the IC50 at Human GlyT1c was not above 1 µM. In addition, the Ki on human GlyT1c transporter was not above 0.1 µM.

As to `Cc1ccc(S(=O)(=O)N2CCN(c3cccc4c(NCc5ccc(Cl)c(Cl)c5)cc(C)nc34)CC2)cc1` [Example 17, (3,4-Dichlorobenzyl)-{2-methyl-8-[4-(toluene-4-sulfonyl)-piperazin-1-yl]-quinolin-4-yl}-amine], the IC50 on Human GlyT1c was not above 10 µM. In addition, the Ki at human GlyT1c transporter is not above 1 µM.

For `Cc1cc(NCc2ccc(Cl)c(Cl)c2)c2cccc(N3CCNCC3)c2n1` [Example 18, (3,4-Dichlorobenzyl)-(2-methyl-8-piperazin-1-yl-quinolin-4-yl)-amine dihydrochloride], on Human GlyT1c, the IC50 was not above 1 µM. At human GlyT1c transporter, the Ki was not above 0.1 µM.

For `Cc1cc(NCc2ccc(Cl)c(Cl)c2)c2cccc(OCCNC(=O)OC(C)(C)C)c2n1` [Example 19, {2-[4-(3,4-Dichlorobenzylamino)-2-methylquinolin-8-yloxy]-ethyl}-carbamate tert-butyl ester], the 50% inhibitory concentration (IC50) at Human GlyT1c was not above 0.1 µM. In addition, the Ki at human GlyT1c transporter is not above 0.1 µM.

As for `Cc1cc(NCc2ccc(Cl)c(Cl)c2)c2cccc(OCCN)c2n1` [Example 20, [8-(2-Aminoethoxy)-2-methylquinolin-4-yl]-(3,4-dichlorobenzyl)-amine dihydrochloride], the half-inhibitory concentration (IC50) on Human GlyT1c is not above 1 µM. The Ki at human GlyT1c transporter was not above 0.01 µM.

Turning to `Cc1cc(NCc2ccc(Cl)c(Cl)c2)c2cccc(OCCNS(C)(=O)=O)c2n1` [Example 21], at Human GlyT1c, the IC50 is not above 0.1 µM. The Ki on human GlyT1c transporter was not above 0.01 µM.

As for `Cc1cc(NCc2ccc(Cl)c(Cl)c2)c2cccc(OCCNC(=O)c3ccccc3)c2n1` [Example 22], the concentration for half-maximal inhibition (IC50) at Human GlyT1c was not above 0.1 µM. Further, the Ki on human GlyT1c transporter was not above 0.01 µM.

`Cc1cc(NCc2ccc(Cl)c(Cl)c2)c2cccc(OCCNS(=O)(=O)c3ccccc3)c2n1` [Example 23, hydrochloride]: the IC50 on Human GlyT1c was not above 1 µM. Besides, the Ki on human GlyT1c transporter is not above 0.01 µM.

Turning to `CC(=O)NCCOc1cccc2c(NCc3ccc(Cl)c(Cl)c3)cc(C)nc12` [Example 24, N-{2-[4-(3,4-Dichlorobenzylamino)-2-methylquinolin-8-yloxy]-ethyl}-acetamide], at Human GlyT1c, the IC50 was not above 1 µM. Further, at human GlyT1c transporter, the Ki was not above 0.1 µM.

As a reminder, the IC50 is the concentration at which inhibition is half-maximal.
